Experimental data from US5550143A, “Heterocyclic compounds” (Adir et Compagnie, priority 1992, dated 1996).
Where two headings read alike, the source gives them in different places.

Columns and labels:
[1] = tested on: TNF; experiment: Peripheral effect: amount of TNF in serum and brain of rats after intracerebroventricular LPS; type: in vivo; details: Example 1 i.p. 8 mg/kg, FIG. 1
From the text: In comparison with chlorpromazine, the compounds of the invention have only a peripheral effect.

[2] = target: T1, Procine pancreatic PLA2 (Sus scrofa, UniProt P00592); experiment: Inhibition of phospholipase PLA2 activity (E. coli membranes labelled with tritiated oleic acid); type: biochemical, pigs; details: read-out: % Inhibition at 1 mM
T1 construct: from tissue; host or cells: porcine pancreas
T1 sequence (P00592 23-146): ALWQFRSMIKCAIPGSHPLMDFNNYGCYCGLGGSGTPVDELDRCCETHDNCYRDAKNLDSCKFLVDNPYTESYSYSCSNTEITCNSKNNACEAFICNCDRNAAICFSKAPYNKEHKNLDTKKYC
Protocol: PLA2 hydrolyses cell membrane phospholipids by freeing arachidonic acid (AA). Inhibition of that enzyme brings about a reduction in the amount of non-esterified free AA from which metabolites, such as leucotrienes and pro-inflammatory prostaglandins, are produced. The PLA2 activity is measured by using as substrate E. coli membranes labelled with tritiated oleic acid. Procine pancreatic PLA2 is incubated with the preparation for 30 minutes at 37° C. After centrifugation, the radioactivity of the supernatant is counted. The inhibitory activity of the compound (1 mM) is expressed in relation to the control.

[3] = Hypotensive effect in rats; type: in vivo; details: 20 mg/kg intraperitoneally
[4] = tested on: LPS shock; experiment: Protective effect in respect of LPS shock (% survival of mice after administration of LPS); type: in vivo; details: 30 min before LPS 1 μg
Protocol: The test is carried out on mice. The compound to be tested is administered intraperitoneally or orally. In the first protocol (i.p.), the compound is administered 30 minutes before the injection of 1 μg of LPS into mice. The mortality is determined 72 hours later.

[5] = tested on: corticosteronemia; experiment: Measurement of corticosteronemia after administration of IL-1; type: in vivo, mice; details: for Reduction in hypercorticosteronemia compared with control / Hypercorticosteronemia after admin. IL-1: 30 min before 1 μg IL-1 i.p.; for Hypercorticosteronemia after admin. IL-1: measured 2 hours later
Protocol: Thirty minutes after the intraperitoneal administration of the molecule to be tested, the mice are treated with 1 μg of IL-1 injected intraperitoneally. Corticosteronemia is determined 2 hours later by a suitable technique. Under the same conditions, the compound and then a saline solution are administered intraperitoneally to a control group.

[6] = tested on: spontaneous motor activity; experiment: Locomotive activity in mice (spontaneous motor activity); type: in vivo; details: for Number of movements (as a % compared with a control group): 30 min before test, 15 min, ns p > 0.05, ** p < 0.01
Protocol: This test consists in determining the spontaneous motor activity of mice placed in an enclosure that constitutes a new environment and is equipped with a system of infra-red rays, the interruption of which when the animal passes through serves as a measurement criterion ("Activity monitor" Digiscan-Omnitech Electronics, Sufraco France).
The molecules are administered intraperitoneally 30 minutes before the test at doses of 1, 2, 2.5, 4, 5 and 10 mg/kg. The locomotive activity (number of movements) is measured for 15 minutes.

[7] = tested on: TNF; experiment: Inhibition of the production of TNF in mice treated with LPS (amount of TNF in the serum); type: in vivo; details: Mus musculus, 1 h; for inhibition in vivo at 50 mg/kg: oral, 30 min before LPS 2.5 μg i.p., compared with control group which received only LPS, read-out: % inhibition of the production of TNF after oral admin.
Protocol: The test is carried out on mice. Thirty minutes after the intraperitoneal or oral administration of the molecule to be tested, the mice are treated intraperitoneally with 2.5 μg of LPS from Escherichia coli. The amount of TNF in the serum is measured after 1 hour by a biological method.

[8] = ip, read-out: % inhibition of the production of TNF after i.p. admin.
[9] = 1 mM, 30 minutes at 37° C., relative to control

Structure (SMILES) | hypotension [3] | Reduction in hypercorticosteronemia compared with control ([5]; 5 mg/kg i.p.) [%] | Hypercorticosteronemia after admin. IL-1 ([5]; 5 mg/kg i.p.) [ng/ml serum] | inhibition in vivo at 50 mg/kg [7] [%] | inhibition in vivo at 5 mg/kg [7, 8] [%] | also measured
CN(C)CCCN1c2ccccc2Sc2ccc(Cl)cc21 [Chlorpromazine, reference compound] | severe hypotension from the 15th minute onwards | – | – | – | – | amount of TNF in the brain (rats, intracerebroventricular LPS) ([1]; brain): the amount in the brain, as is observed in rats treated with chlorpromazine; amount of TNF in the serum (rats, intracerebroventricular LPS) ([1]; 8 mg/kg): reduces the amount of TNF in the serum, as does chlorpromazine; inhibition at 1000 µM [2]: 76%; % survival 72 h after i.p. administration ([4]; 1 mg/kg): 36%; % survival 72 h after i.p. administration ([4]; 4 mg/kg): 77%; Reduction in hypercorticosteronemia compared with control ([5]; 4 mg/kg i.p.): ~86%; Reduction in hypercorticosteronemia compared with control ([5]; 4 mg/kg i.p., listed as Chloropromazine): 85.7%; Hypercorticosteronemia after admin. IL-1 ([5]; 4 mg/kg i.p.): 63 ng/ml serum; passage through the blood/brain barrier ([5]; demonstrated by determination of corticosteronemia after IL-1): crosses the blood/brain barrier; Number of movements (as a % compared with a control group) ([6]; IP 1 mg/kg): -20%; Number of movements (as a % compared with a control group) ([6]; IP 2 mg/kg): -58%; Number of movements (as a % compared with a control group) ([6]; IP 4 mg/kg): -64%; sedative action (in words) ([6]; i.p., chlorpromazine at 2 mg/kg and above): very sedative at 2 mg/kg and above; inhibition in vivo at 4 mg/kg [7, 8]: 100%
C[N+](C)(C)CCCN1c2ccccc2Sc2ccc(Cl)cc21.[Br-] [Example 1, N-[3-(2-chlorophenothiazin-10-yl)propyl]trimethylammonium bromide] | No hypotension is observed | 11.8 | 389 | 68 | 75 | amount of TNF in the serum (rats, intracerebroventricular LPS) [1]: reduces the amount of TNF in the serum; inhibition at 1000 µM [2, 9]: 72%; % survival 72 h after i.p. administration ([4]; 5 mg/kg): 80%; Number of movements (as a % compared with a control group) ([6]; IP 5 mg/kg): -20%; Number of movements (as a % compared with a control group) ([6]; IP 10 mg/kg): -9%
C[N+](C)(C)CCCN1c2ccccc2[S+]([O-])c2ccc(Cl)cc21.[Br-] (stereo not drawn) [Example 2, N-[3-(2-chloro-5-oxo-phenothiazin-10-yl)propyl]trimethylammonium bromide] | No hypotension is observed | 5.4 | 417 | 60 | 50 | –
C[N+](C)(C)CCCN1c2ccccc2S(=O)(=O)c2ccc(Cl)cc21 [Example 3, N-[3-(2-chloro-5-dioxo-phenothiazin-10-yl)propyl]trimethylammonium bromide] | – | – | – | – | 69 | –
CC(C)[N+](C)(C)CCCN1c2ccccc2Sc2ccc(Cl)cc21 [Example 6, N-[3-(2-chlorophenothiazin-10-yl)propyl] dimethylisopropylammonium bromide] | – | – | – | 38 | – | –
CCCC[N+](C)(C)CCCN1c2ccccc2Sc2ccc(Cl)cc21.[Br-] [Example 7, N-[3-(2-chlorophenothiazin-10-yl)propyl] butyldimethylammonium bromide] | No hypotension is observed | 11.8 | 389 | 72 | 95 | inhibition at 1000 µM [2, 9]: 97%; % survival 72 h after i.p. administration ([4]; 5 mg/kg): 40%; Number of movements (as a % compared with a control group) ([6]; IP 5 mg/kg): -43%; Number of movements (as a % compared with a control group) ([6]; IP 10 mg/kg): -63%; Number of movements (as a % compared with a control group) ([6]; IP 2,5 mg/kg): -27%
CCCC[N+](C)(C)CCCN1c2ccccc2[S+]([O-])c2ccc(Cl)cc21.[Br-] (stereo not drawn) [Example 8, N-[3-(2-chloro-5-oxo-phenothiazin-10-yl)propyl] butyldimethylammonium bromide] | No hypotension is observed | 19.3 | 356 | 73 | 71 | –
CCCC[N+](C)(C)CCCN1c2ccccc2S(=O)(=O)c2ccc(Cl)cc21 [Example 9, N-[3-(2-chloro-5-dioxo-phenothiazin-10-yl)propyl] butyldimethylammonium bromide] | – | – | – | – | 75 | –
C[N+](C)(CCCN1c2ccccc2Sc2ccc(Cl)cc21)Cc1ccccc1.[Br-] [Example 10, N-[3-(2-chlorophenothiazin-10-yl)propyl] benzyldimethylammonium bromide] | – | 0.2 | 440 | – | 27 | inhibition at 1000 µM [2, 9]: 98%; % survival 72 h after i.p. administration ([4]; 5 mg/kg): 60%
O=C(O)CCCN1c2ccccc2Sc2ccc(Cl)cc21 [Example 15, 4-(2-chlorophenothiazin-10-yl)butanoic acid] | – | – | – | 55 | – | –
CC(C)=CCC/C(C)=C/CN1c2ccccc2Sc2ccc(Cl)cc21 [Example 26, 2-chloro-10-[(2E)-1-(3,7-dimethylocta-2,6-dienyl)]phenothiazine] | – | – | – | 55 | – | –
CC(C)(C)C1CCC2(CC1)CCN(CCCN1c3ccccc3Sc3ccc(Cl)cc31)C2 (stereo not drawn) [Example 27, 2-[3-(2-chlorophenothiazin-10-yl)propyl]-8-tert-butyl-2-azoniaspiro[4.5]decane chloride] | – | – | – | 26 | – | –
CCN(CC)CCCC(C)Nc1c2ccc(Cl)cc2nc2ccc(OC)cc12 (stereo not drawn) [Mepacrine, reference compound] | – | – | – | – | – | inhibition at 1000 µM [2]: 67%
